Organism: Rattus norvegicus
Experiment: DrugMatrix - Regimen: Daily Repeat
Type: toxicity, organism-based, Sprague-Dawley
Design: regimen Daily Repeat, gender Male, age 6-8 weeks
Details: in vivo, sc, route subcutaneous, […]; for ABSOLUTE BASOPHIL / ABSOLUTE EOSINOPHIL / ABSOLUTE LYMPHOCYTE / ABSOLUTE MONOCYTE / ABSOLUTE SEGMENTED NEUTROPHIL / BASOPHIL / EOSINOPHIL / ERYTHROCYTE COUNT / HEMATOCRIT / HEMOGLOBIN / LEUKOCYTE COUNT / LYMPHOCYTE / MEAN CORPUSCULAR HEMOGLOBIN / MEAN CORPUSCULAR HEMOGLOBIN CONCENTRATION / MEAN CORPUSCULAR VOLUME / MONOCYTE / NEUTROPHIL / NUCLEATED RED BLOOD CELLS / PLATELET COUNT: tissue Blood; for ALANINE AMINOTRANSFERASE / ALBUMIN / ALKALINE PHOSPHATASE / ASPARTATE AMINOTRANSFERASE / BLOOD UREA NITROGEN / CARBON DIOXIDE / CHLORIDE / CHOLESTEROL / CREATINE PHOSPHOKINASE / CREATININE / GLUCOSE / LACTATE DEHYDROGENASE / LIPASE / PHOSPHORUS / POTASSIUM / SODIUM / TOTAL BILIRUBIN / TOTAL PROTEIN / URIC ACID: tissue Plasma
[1] = 7 mg/kg, 72 h, dose level High, time 3 day
[2] = 7 mg/kg, 120 h, dose level High, time 5 day
[3] = 72 h, dose 1.5 mg/Kg, dose level Low, time 3 day
[4] = 120 h, dose 1.5 mg/Kg, dose level Low, time 5 day

`CC1=C(/C=C/C(C)=C/C=C/C(C)=C/C(=O)O)C(C)(C)CCC1` [TRETINOIN] was tested, and the “ABSOLUTE BASOPHIL” value [1] was 0 CELLS/uL, the “ABSOLUTE EOSINOPHIL” value [1] was 0 CELLS/uL and the “ABSOLUTE LYMPHOCYTE” value [1] was 16685.33 CELLS/uL. For the same compound, the “ABSOLUTE MONOCYTE” value [1] was 222.33 CELLS/uL, the “ABSOLUTE SEGMENTED NEUTROPHIL” value [1] was 2859 CELLS/uL and the BASOPHIL [1] was 0%. The EOSINOPHIL [1] was 0%, the “ERYTHROCYTE COUNT” value [1] was 5.42 x10E6/uL and the HEMATOCRIT [1] was 34.57%. The HEMOGLOBIN [1] was 12.7 G/DL, the “LEUKOCYTE COUNT” value [1] was 19.77 x10E3/uL and the LYMPHOCYTE [1] was 84%. For the same compound, the “MEAN CORPUSCULAR HEMOGLOBIN” value [1] was 23.43 pg, the “MEAN CORPUSCULAR HEMOGLOBIN CONCENTRATION” value [1] was 36.73 G/DL and the “MEAN CORPUSCULAR VOLUME” value [1] was 63.77 fL. For the same compound, the MONOCYTE [1] was 1%, the NEUTROPHIL [1] was 15% and the “NUCLEATED RED BLOOD CELLS” value [1] was 0 /100WBC. The “PLATELET COUNT” value [1] was 1323.33 x10E3/uL, the “ALANINE AMINOTRANSFERASE” value [1] was 50 u/L and the ALBUMIN [1] was 4.03 G/DL. For the same compound, the “ALKALINE PHOSPHATASE” value [1] was 328.67 u/L, the “ASPARTATE AMINOTRANSFERASE” value [1] was 77.33 u/L and the “BLOOD UREA NITROGEN” value [1] was 15.67 mg/dL. The “CARBON DIOXIDE” value [1] was 15 mmol/L, the CHLORIDE [1] was 103.67 MEQ/L and the CHOLESTEROL [1] was 79 mg/dL. The “CREATINE PHOSPHOKINASE” value [1] was 311.33 u/L, the CREATININE [1] was 0.19 mg/dL and the GLUCOSE [1] was 165.33 mg/dL. The “LACTATE DEHYDROGENASE” value [1] was 120.33 u/L, the LIPASE [1] was 9.67 u/L and the PHOSPHORUS [1] was 13.53 mg/dL. For the same compound, the POTASSIUM [1] was 7.16 MEQ/L, the SODIUM [1] was 147 MEQ/L and the “TOTAL BILIRUBIN” value [1] was 0.2 mg/dL. For the same compound, the “TOTAL PROTEIN” value [1] was 5.97 G/DL, the “URIC ACID” value [1] was 1.5 mg/dL and the “ABSOLUTE BASOPHIL” value [2] was 0 CELLS/uL. The “ABSOLUTE EOSINOPHIL” value [2] was 71.67 CELLS/uL, the “ABSOLUTE LYMPHOCYTE” value [2] was 17691.67 CELLS/uL and the “ABSOLUTE MONOCYTE” value [2] was 531.67 CELLS/uL. The “ABSOLUTE SEGMENTED NEUTROPHIL” value [2] was 3905 CELLS/uL, the BASOPHIL [2] was 0% and the EOSINOPHIL [2] was 0.33%. The “ERYTHROCYTE COUNT” value [2] was 5.84 x10E6/uL, the HEMATOCRIT [2] was 36.1% and the HEMOGLOBIN [2] was 13.37 G/DL. The “LEUKOCYTE COUNT” value [2] was 22.2 x10E3/uL, the LYMPHOCYTE [2] was 79.67% and the “MEAN CORPUSCULAR HEMOGLOBIN” value [2] was 22.9 pg. For the same compound, the “MEAN CORPUSCULAR HEMOGLOBIN CONCENTRATION” value [2] was 37.03 G/DL, the “MEAN CORPUSCULAR VOLUME” value [2] was 61.8 fL and the MONOCYTE [2] was 2.33%. The NEUTROPHIL [2] was 17.67%, the “NUCLEATED RED BLOOD CELLS” value [2] was 0 /100WBC and the “PLATELET COUNT” value [2] was 1087.33 x10E3/uL. The “ALANINE AMINOTRANSFERASE” value [2] was 46.33 u/L, the ALBUMIN [2] was 3.87 G/DL and the “ALKALINE PHOSPHATASE” value [2] was 319.67 u/L. The “ASPARTATE AMINOTRANSFERASE” value [2] was 88 u/L, the “BLOOD UREA NITROGEN” value [2] was 14.67 mg/dL and the “CARBON DIOXIDE” value [2] was 33.33 mmol/L. The CHLORIDE [2] was 103.33 MEQ/L, the CHOLESTEROL [2] was 75.67 mg/dL and the “CREATINE PHOSPHOKINASE” value [2] was 348 u/L. The CREATININE [2] was 0.28 mg/dL, the GLUCOSE [2] was 172.33 mg/dL and the “LACTATE DEHYDROGENASE” value [2] was 105.67 u/L. It also gave an LIPASE [2] of 12 u/L, a PHOSPHORUS [2] of 13.8 mg/dL and a POTASSIUM [2] of 6.84 MEQ/L. The SODIUM [2] was 147.23 MEQ/L, the “TOTAL BILIRUBIN” value [2] was 0.13 mg/dL and the “TOTAL PROTEIN” value [2] was 6.07 G/DL. For the same compound, the “URIC ACID” value [2] was 1.8 mg/dL, the “ABSOLUTE BASOPHIL” value [3] was 0 CELLS/uL and the “ABSOLUTE EOSINOPHIL” value [3] was 41.67 CELLS/uL. The “ABSOLUTE LYMPHOCYTE” value [3] was 10665.33 CELLS/uL, the “ABSOLUTE MONOCYTE” value [3] was 55.67 CELLS/uL and the “ABSOLUTE SEGMENTED NEUTROPHIL” value [3] was 2104 CELLS/uL. For the same compound, the BASOPHIL [3] was 0%, the EOSINOPHIL [3] was 0.33% and the “ERYTHROCYTE COUNT” value [3] was 4.74 x10E6/uL. The HEMATOCRIT [3] was 30.27%, the HEMOGLOBIN [3] was 11.93 G/DL and the “LEUKOCYTE COUNT” value [3] was 12.87 x10E3/uL. The LYMPHOCYTE [3] was 83.67%, the “MEAN CORPUSCULAR HEMOGLOBIN” value [3] was 25.23 pg and the “MEAN CORPUSCULAR HEMOGLOBIN CONCENTRATION” value [3] was 39.47 G/DL. The “MEAN CORPUSCULAR VOLUME” value [3] was 63.87 fL, the MONOCYTE [3] was 0.33% and the NEUTROPHIL [3] was 15.67%. The “NUCLEATED RED BLOOD CELLS” value [3] was 0 /100WBC, the “PLATELET COUNT” value [3] was 1093.33 x10E3/uL and the “ALANINE AMINOTRANSFERASE” value [3] was 51 u/L. For the same compound, the ALBUMIN [3] was 4.23 G/DL, the “ALKALINE PHOSPHATASE” value [3] was 460.67 u/L and the “ASPARTATE AMINOTRANSFERASE” value [3] was 100 u/L. The “BLOOD UREA NITROGEN” value [3] was 15.67 mg/dL, the “CARBON DIOXIDE” value [3] was 22.33 mmol/L and the CHLORIDE [3] was 107.67 MEQ/L. The CHOLESTEROL [3] was 98.33 mg/dL, the “CREATINE PHOSPHOKINASE” value [3] was 387.67 u/L and the CREATININE [3] was 0.23 mg/dL. For the same compound, the GLUCOSE [3] was 164.33 mg/dL, the “LACTATE DEHYDROGENASE” value [3] was 522.33 u/L and the LIPASE [3] was 11.33 u/L. It also gave a PHOSPHORUS [3] of 12.5 mg/dL, a POTASSIUM [3] of 6.67 MEQ/L and an SODIUM [3] of 150.27 MEQ/L. For the same compound, the “TOTAL BILIRUBIN” value [3] was 0.27 mg/dL, the “TOTAL PROTEIN” value [3] was 6.27 G/DL and the “URIC ACID” value [3] was 1.97 mg/dL. For the same compound, the “ABSOLUTE BASOPHIL” value [4] was 0 CELLS/uL, the “ABSOLUTE EOSINOPHIL” value [4] was 0 CELLS/uL and the “ABSOLUTE LYMPHOCYTE” value [4] was 9182.33 CELLS/uL. The “ABSOLUTE MONOCYTE” value [4] was 21 CELLS/uL, the “ABSOLUTE SEGMENTED NEUTROPHIL” value [4] was 1630 CELLS/uL and the BASOPHIL [4] was 0%. For the same compound, the EOSINOPHIL [4] was 0%, the “ERYTHROCYTE COUNT” value [4] was 5.54 x10E6/uL and the HEMATOCRIT [4] was 34.87%. For the same compound, the HEMOGLOBIN [4] was 12.9 G/DL, the “LEUKOCYTE COUNT” value [4] was 10.83 x10E3/uL and the LYMPHOCYTE [4] was 85%. The “MEAN CORPUSCULAR HEMOGLOBIN” value [4] was 23.27 pg, the “MEAN CORPUSCULAR HEMOGLOBIN CONCENTRATION” value [4] was 37 G/DL and the “MEAN CORPUSCULAR VOLUME” value [4] was 62.9 fL. The MONOCYTE [4] was 0.33%, the NEUTROPHIL [4] was 14.67% and the “NUCLEATED RED BLOOD CELLS” value [4] was 0 /100WBC. For the same compound, the “PLATELET COUNT” value [4] was 981.67 x10E3/uL, the “ALANINE AMINOTRANSFERASE” value [4] was 52 u/L and the ALBUMIN [4] was 3.9 G/DL. For the same compound, the “ALKALINE PHOSPHATASE” value [4] was 336.33 u/L, the “ASPARTATE AMINOTRANSFERASE” value [4] was 91 u/L and the “BLOOD UREA NITROGEN” value [4] was 16.33 mg/dL. For the same compound, the “CARBON DIOXIDE” value [4] was 24.33 mmol/L, the CHLORIDE [4] was 107 MEQ/L and the CHOLESTEROL [4] was 79 mg/dL. For the same compound, the “CREATINE PHOSPHOKINASE” value [4] was 270.33 u/L, the CREATININE [4] was 0.17 mg/dL and the GLUCOSE [4] was 180.33 mg/dL. The “LACTATE DEHYDROGENASE” value [4] was 147.67 u/L, the LIPASE [4] was 10.33 u/L and the PHOSPHORUS [4] was 14.17 mg/dL. For the same compound, the POTASSIUM [4] was 6.48 MEQ/L, the SODIUM [4] was 147.97 MEQ/L and the “TOTAL BILIRUBIN” value [4] was 0.23 mg/dL. For the same compound, the “TOTAL PROTEIN” value [4] was 6.07 G/DL and the “URIC ACID” value [4] was 2.07 mg/dL.

Reference: ChEMBL document CHEMBL3885881, “DrugMatrix”
